{
  "source": "patent US4543256A",
  "about": "“(-)-10,1L Methylenedioxy-N-N-propylnoraporphine and methods employing it for inhibiting the effects of epileptic seizures and for prevention and treatment of duodenal ulcers” (Northeastern University, priority 1982, dated 1985)",
  "key": {"duodenal ulcers": {"tested_on": "duodenal ulcers", "test": "Cysteamine-induced duodenal ulcer in the rat", "conditions": "for Duodenal Ulcer Intensity (Scale: 0-3): control 1.8; for Duodenal Ulcer Incidence (Positive/Total): control 10/12"}, "rats [1]": {"tested_on": "rats", "test": "Stereotyped behavior of rats (rating scale; score, onset and duration)", "type": "in vivo, rat (male Sprague-Dawley)", "conditions": "for Stereotypy (percent of the maximum possible score): 100%=18.0, placebo 4.4±2.5%, N=3 to 6; for Stereotypy Score: rated one hour, maximum 18, N=6, mean ±SEM; for Duration of Effect (stereotypy): complete when scores ≤3; for stereotypy scores: NPA 3 mg/kg i.p., N=6", "procedure": "(§1) Male Sprague-Dawley (Charles River Labs.) rats (initially 175-200 g) were housed four per cage, with free access to food and water, under controlled lighting (on 7:00 a.m. to 7:00 p.m.), constant temperature 21°-23° C. and controlled humidity (40-50%). Aporphines were administered, as described below, freshly dissolved in 1 mM citric acid mixed with 0.9% (w/v) saline (1:4, vols.); this solvent was also used as a vehicle (\"placebo\") control. Haloperidol was given in the same medium; 2-diethyl aminoethyl-2,2 diphenylvalerate HCl (SKF-525A) was given in saline.\nStereotyped behavior was evaluated by a trained observer according to a rating scale method reported previously (Campbell and Baldessarini, 1981a). Briefly, the ratings were as follows: 0, no stereotypy, normal locomotion; 1, discontinuous sniffing, reduced locomotion; 2, continuous sniffing, only periodic exploration; 3, continuous sniffing, mouth movements, infrequent, exploratory activity, Ratings were made each 10 min. by observation for 30 sec, typically for 60 min. (maximum score=18.0/hour).\n(§2) In all experiments except those which evaluated the time-course of drug effects, rats were given an injection of vehicle and then allowed to rest for 15 min. to adapt to nonspecific arousal effects, prior to a second injection of test agent (or placebo) and immediate behavioral testing. Behavioral data were evaluated by Student's t-test and are always expressed as mean ±SEM.\nData are mean values ±SEM for N=6 rats per group given doses of each aporphine (1mg/kg/, or approximately 3 umole/kg) by orogastric intubation (P.O.), or subcutaneous (S.C.) or intraperitoneal (I.P.) injection. Stereotypy was rated for one hour as described in Methods and duration is defined as complete when scores diminished to ≤3 (out of a maximum possible score of 18).\nData are mean values ±SEM (N=4 to 8 rats per condition). […] N.D. indicates \"not determined.\" (*) Indicates a significant difference by t-test between control and oxidase inhibitor-pretreated rats (p<0.01).\nStereotypy was rated for 60 min as described in Methods. Data are means SEM (stereotypy scores, when 18=maximum in 1 hour) for N=6 rats per group; (*) indicates p<0.0001 by t test.\nData are mean values ±SEM (N=3 to 6 rats per condition) for effects of seven aporphine compounds (R=substituents, keyed to the structure above). Full chemical names for all compounds are provided in Methods. […] Data are provided for a dose of 10 mg/kg (i.p.), although doses of 1 and 5 mg/kg were also tested."}, "rats [2]": {"tested_on": "rats", "test": "Locomotor (general motor) activity, electronic activity monitor", "type": "in vivo, rat (male Sprague-Dawley)", "procedure": "as §1\nLocomotor activity was evaluated by use of a printing electronic activity monitor (EAM, Stoelting Co., Chicago, IL) within a sound-attenuated chamber, typically for 60 min., as described previously (Stewart, Campbell, Sperk and Baldessarini, 1979, Psychopharmacology 60 281-289; Campbell and Baldessarini, 1981a, Psychopharmacology 73:219-222.\nas §2\nData are mean values ±SEM (N=4 to 8 rats per condition). Animals were pretreated with SKF-525A (40 mg/kg, i.p.) or its vehicle 30 min before MDO-NPA (in the doses noted, from 0 to 3 mg/kg, i.p.). Activity was then monitored electronically for an hour after the low doses of MDO-NPA (data in counts/hour), or rated for stereotypy every 10 min for an hour after higher doses. N.D. indicates \"not determined.\" (*) Indicates a significant difference by t-test between control and oxidase inhibitor-pretreated rats (p<0.01).\nData are mean values ±SEM (N=3 to 6 rats per condition) for effects of seven aporphine compounds (R=substituents, keyed to the structure above). Full chemical names for all compounds are provided in Methods. Ratings are expressed as percent of the maximum possible score (100%)=18.0) of stereotypy (Placebo-injected controls yielded scores of 4.4±2.5%); and as the percent of control locomotor activity (100%=430±86 counts/hr). Data are provided for a dose of 10 mg/kg (i.p.), although doses of 1 and 5 mg/kg were also tested."}, "[3]": {"conditions": "in vivo, cited from earlier work"}, "Adenylate cyclase": {"tested_on": "Adenylate cyclase", "test": "Adenylate cyclase stimulation (cAMP) in rat striatal homogenates", "type": "biochemical", "conditions": "50 μM; control (no addition) 2.38 ± 0.14; p < 0.01; N=4", "excerpt": "of cAMP in rat striatal homogenates; inhibition of binding of"}, "gastric acid output": {"tested_on": "gastric acid output", "conditions": "rats given cysteamine or propionitrile; previous studies; cited from earlier work"}, "[4]": {"conditions": "10 mg/kg i.p.; 100%=430±86 counts/hr; N=3 to 6"}, "[5]": {"conditions": "50 μg/100g s.c. once daily seven days"}, "[6]": {"conditions": "100 μg/100g s.c. once daily seven days"}, "[7]": {"conditions": "SKF-525A 40 mg/kg i.p. alone (MDO-NPA dose 0)"}},
  "note": "Where a name gives a salt, the structure may show the parent alone. Read-outs that look alike come from different tables or passages of the source.",
  "data": [
    {"molecule": "CC(C)(C)C1(O)CCN2CC3c4ccccc4CCc4cccc(c43)C2C1", "note": "(single isomer, unassigned; (+)) [(+)-butaclamol, reference compound]", "values": [
      {"measurement": "effect on the beneficial effect of NPA and MDO-NPA", "setting": "duodenal ulcers; combined with NPA or MDO-NPA", "value": "reversed the beneficial effect of NPA and MDO-NPA"},
      {"measurement": "effect on cysteamine-induced duodenal ulcers", "setting": "duodenal ulcers; rats given cysteamine", "value": "aggravated the experimental duodenal ulcers"}
    ]},
    {"molecule": "CCCCCC1(C)Oc2ccc3c(c2O1)-c1cccc2c1C(C3)N(CCC)CC2.Cl", "note": "(single isomer, unassigned; (-)) [Methyl-pentyl-MDO--NPA, (-) 10,11-Heptylidene-2-dioxy-N-n-propylnoraporphine-HCl]", "values": [
      {"measurement": "Stereotypy (percent of the maximum possible score)", "setting": "rats [1]; 10 mg/kg i.p.", "value": "11.1 ± 5.7", "unit": "%"},
      {"measurement": "Locomotion (percent of control locomotor activity)", "setting": "rats [2]; [4]", "value": "86.1 ± 22.3", "unit": "%"}
    ]},
    {"molecule": "CCCN1CCc2cccc3c2[C@H]1Cc1c([N+](=O)[O-])cc2c(c1-3)OCO2", "note": "[8-Nitro-MDO--NPA]", "values": [
      {"measurement": "Stereotypy (percent of the maximum possible score)", "setting": "rats [1]; 10 mg/kg i.p.", "value": "4.4 ± 2.5", "unit": "%"},
      {"measurement": "Locomotion (percent of control locomotor activity)", "setting": "rats [2]; [4]", "value": "74.4 ± 9.8", "unit": "%"}
    ]},
    {"molecule": "CN1CCc2cccc3c2[C@H]1Cc1ccc(O)c(O)c1-3", "note": "[APO, apomorphine, reference compound]", "values": [
      {"measurement": "Stereotypy Score", "setting": "rats [1]; 1 mg/kg I.P.", "value": "16.5 ± 2.4"},
      {"measurement": "Duration of Effect (stereotypy)", "setting": "rats [1]; 1 mg/kg I.P.", "value": "72 ± 12", "unit": "min"},
      {"measurement": "Stereotypy Score", "setting": "rats [1]; 1 mg/kg P.O.", "value": 0},
      {"measurement": "Duration of Effect (stereotypy)", "setting": "rats [1]; 1 mg/kg P.O.", "value": 0, "unit": "min"},
      {"measurement": "Stereotypy Score", "setting": "rats [1]; 1 mg/kg S.C.", "value": "17.5 ± 0.4"},
      {"measurement": "Duration of Effect (stereotypy)", "setting": "rats [1]; 1 mg/kg S.C.", "value": "70 ± 5", "unit": "min"},
      {"measurement": "dependence of duration of action on dose", "setting": "rats [1]; i.p.", "value": "much less tendency for duration to increase with dose"},
      {"measurement": "minimal effective dose", "setting": "rats [2]; Rattus norvegicus, ip; read-out: dose producing increases in general motor activity", "value": "> 2", "unit": "µmol/kg"},
      {"measurement": "motor activity at lower doses (below 2 μmoles/kg)", "setting": "rats [2]; i.p.", "value": "no significant effect"},
      {"measurement": "duration of action", "setting": "[3]", "value": "short duration of action"}
    ]},
    {"molecule": "CN1CCc2cccc3c2[C@H]1Cc1ccc2c(c1-3)OCO2", "note": "[MDO-APO]", "values": [
      {"measurement": "Stereotypy", "setting": "rats [1]; 10 mg/kg i.p.", "value": "weak and inconsistent stereotypy (not significant statistically)"},
      {"measurement": "behavioral effects after oral administration", "setting": "rats [1]; 1 to 5 mg/kg oral", "value": "no significant behavioral effects"},
      {"measurement": "excitatory effects", "setting": "rats [2]; 10 mg/kg i.p.", "value": "relatively weak and inconsistent excitatory effects"},
      {"measurement": "inhibition of locomotor activity", "setting": "rats [2]; 10 mg/kg i.p.", "value": "significant effect (p 0.01 by t-test) to inhibit locomotor activity"}
    ]},
    {"molecule": "CCCN1CCc2cccc3c2[C@H]1Cc1ccc(O)c(O)c1-3", "note": "[NPA, N-n-Propylnorapomorphine, reference compound]", "values": [
      {"measurement": "Stereotypy Score", "setting": "rats [1]; 1 mg/kg I.P.", "value": "17.5 ± 1.0"},
      {"measurement": "Duration of Effect (stereotypy)", "setting": "rats [1]; 1 mg/kg I.P.", "value": "70 ± 10", "unit": "min"},
      {"measurement": "Stereotypy Score", "setting": "rats [1]; 1 mg/kg P.O.", "value": 0},
      {"measurement": "Duration of Effect (stereotypy)", "setting": "rats [1]; 1 mg/kg P.O.", "value": 0, "unit": "min"},
      {"measurement": "Stereotypy Score", "setting": "rats [1]; 1 mg/kg S.C.", "value": "17.5 ± 0.8"},
      {"measurement": "Duration of Effect (stereotypy)", "setting": "rats [1]; 1 mg/kg S.C.", "value": "72 ± 6", "unit": "min"},
      {"measurement": "stereotypy scores", "setting": "rats [1]; controls (vehicle pretreated)", "value": "17.4±0.2"},
      {"measurement": "stereotypy scores", "setting": "rats [1]; oxidase-inhibited (SKF-525A 40 mg/kg i.p.)", "value": "17.0±0.3"},
      {"measurement": "dependence of duration of action on dose", "setting": "rats [1]; i.p.", "value": "much less tendency for duration to increase with dose"},
      {"measurement": "duration of stereotyped behavioral effects vs other agents", "setting": "rats [1]; i.p., for MDO-NPA at doses above 1 μmole/kg", "value": "about equal to, or slightly greater than that of APO"},
      {"measurement": "minimal effective dose", "setting": "rats [2]; Rattus norvegicus, ip, read-out: dose producing increases in general motor activity", "value": "> 2", "unit": "µmol/kg"},
      {"measurement": "motor activity at lower doses (below 2 μmoles/kg)", "setting": "rats [2]; i.p.", "value": "no significant effect"},
      {"measurement": "Adenylate cyclase stimulation (cAMP)", "setting": "Adenylate cyclase", "value": "5.67 ± 0.28", "unit": "pmol/assay"},
      {"measurement": "oral bioavailability", "setting": "[3]; po", "value": "poor oral bioavailability"},
      {"measurement": "duration of action", "setting": "[3]", "value": "short duration of action"},
      {"measurement": "Duodenal Ulcer Intensity (Scale: 0-3)", "setting": "duodenal ulcers; [5]", "value": 1.1},
      {"measurement": "Duodenal Ulcer Incidence (Positive/Total)", "setting": "duodenal ulcers; [5]", "value": "2/9"},
      {"measurement": "Duodenal Ulcer Intensity (Scale: 0-3)", "setting": "duodenal ulcers; [6]", "value": 0.9},
      {"measurement": "Duodenal Ulcer Incidence (Positive/Total)", "setting": "duodenal ulcers; [6]", "value": "6/9"},
      {"measurement": "effect of a single high dose on duodenal ulcers", "setting": "duodenal ulcers; single high dose", "value": "active"}
    ]},
    {"molecule": "CCCC(C(=O)OCCN(CC)CC)(c1ccccc1)c1ccccc1", "note": "[SKF-525A, 2-diethyl aminoethyl-2,2 diphenylvalerate HCl, reference compound]", "values": [
      {"measurement": "Stereotypy", "setting": "rats [1]; [7]", "value": 0},
      {"measurement": "Activity", "setting": "rats [2]; [7]", "value": "422 ± 28", "unit": "counts/hour"}
    ]},
    {"molecule": "CC(C)C[C@H]1C(=O)N2CCC[C@H]2[C@]2(O)O[C@](NC(=O)[C@@H]3C=C4c5cccc6[nH]c(Br)c(c56)C[C@H]4N(C)C3)(C(C)C)C(=O)N12", "note": "[bromocriptine]", "values": [
      {"measurement": "effect on output of gastric acid", "setting": "gastric acid output", "value": "diminished the output of gastric acid"}
    ]},
    {"molecule": "CN1C[C@H](CC#N)C[C@@H]2c3cccc4[nH]c(Cl)c(c34)C[C@H]21", "note": "[lergotrile]", "values": [
      {"measurement": "effect on output of gastric acid", "setting": "gastric acid output", "value": "diminished the output of gastric acid"}
    ]},
    {"molecule": "(-) 10, 11-Butylidene-2-dioxy-N-n-propylnoraporphine. HCl [Methyl-ethyl MDO--NPA]", "values": [
      {"measurement": "Stereotypy", "setting": "rats [1]; 10 mg/kg i.p.", "value": "weak stereotypic activity"},
      {"measurement": "duration of stereotypic activity", "setting": "rats [1]; 10 mg/kg i.p.", "value": "about 60 min"},
      {"measurement": "onset of stereotypic activity delayed", "setting": "rats [1]; 10 mg/kg i.p.", "value": "about 30 min"},
      {"measurement": "Stereotypy (percent of the maximum possible score)", "setting": "rats [1]; 10 mg/kg i.p.", "value": "31.5 ± 1.9", "unit": "%"}
    ]}
  ]
}
